According to ChEMBL document CHEMBL1201862, “PubChem BioAssay data set” (2004):
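How tested: cells in 96-well plates exposed to compound for 48 hours at five concentrations. Abbreviation: GI50, concentration required for 50% inhibition of growth.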 The source made the active and inactive calls. No stated cut-off is given here; in the data, active = GI50 up to about 1.1 µM and inactive = higher.

Key:
Experiment in all cases: DTP human tumour cell line panel, 48 h
786-0 = test system: 786-0
A498 = test system: A498
A549 = test system: A549
ACHN = test system: ACHN
BT-549 = test system: BT-549
CAKI-1 = test system: CAKI-1
CCRF-CEM = test system: CCRF-CEM
COLO 205 = test system: COLO 205
DU-145 = test system: DU-145
EKVX = test system: EKVX
HCC 2998 = test system: HCC 2998
HCT-116 = test system: HCT-116
HCT-15 = test system: HCT-15
HL-60 = test system: HL-60
HOP-62 = test system: HOP-62
HOP-92 = test system: HOP-92
HT-29 = test system: HT-29
Hs-578T = test system: Hs-578T
IGROV-1 = test system: IGROV-1
K562 = test system: K562
KM12 = test system: KM12
LOX IMVI = test system: LOX IMVI
M14 = test system: M14
MCF7 = test system: MCF7
MDA-MB-231 = test system: MDA-MB-231
MDA-MB-435 = test system: MDA-MB-435
MDA-N = test system: MDA-N
MOLT-4 = test system: MOLT-4
Malme-3M = test system: Malme-3M
NCI-H226 = test system: NCI-H226
NCI-H23 = test system: NCI-H23
NCI-H460 = test system: NCI-H460
NCI-H522 = test system: NCI-H522
NCI/ADR-RES = test system: NCI/ADR-RES
OVCAR-3 = test system: OVCAR-3
OVCAR-4 = test system: OVCAR-4
OVCAR-5 = test system: OVCAR-5
OVCAR-8 = test system: OVCAR-8
PC-3 = test system: PC-3
RPMI-8226 = test system: RPMI-8226
RXF 393 = test system: RXF 393
SF-268 = test system: SF-268
SF-295 = test system: SF-295
SF-539 = test system: SF-539
SK-MEL-28 = test system: SK-MEL-28
SK-MEL-2 = test system: SK-MEL-2
SK-MEL-5 = test system: SK-MEL-5
SK-OV-3 = test system: SK-OV-3
SN12C = test system: SN12C
SNB-19 = test system: SNB-19
SNB-75 = test system: SNB-75
SR = test system: SR
SW-620 = test system: SW-620
T47D = test system: T47D
TK-10 = test system: TK-10
U-251 = test system: U-251
UACC-257 = test system: UACC-257
UACC-62 = test system: UACC-62
UO-31 = test system: UO-31

CCCCNc1nc(SC)nc2[nH]cnc12
GI50 (786-0): > 100 µM (inactive) | GI50 (A498): 5.96 µM (inactive) | GI50 (A549): > 100 µM (inactive) | GI50 (ACHN): > 100 µM (inactive) | GI50 (BT-549): > 100 µM (inactive) | GI50 (CAKI-1): > 100 µM (inactive) | GI50 (CCRF-CEM): > 100 µM (inactive) | GI50 (COLO 205): > 100 µM (inactive) | GI50 (DU-145): > 100 µM (inactive) | GI50 (EKVX): > 87.7 µM (inactive) | GI50 (HCC 2998): > 100 µM (inactive) | GI50 (HCT-116): > 100 µM (inactive) | GI50 (HCT-15): > 100 µM | GI50 (HL-60): > 100 µM (inactive) | GI50 (HOP-62): > 100 µM (inactive) | GI50 (HOP-92): > 59 µM (inactive) | GI50 (HT-29): > 100 µM (inactive) | GI50 (Hs-578T): 2.36 µM (inactive) | GI50 (IGROV-1): > 100 µM (inactive) | GI50 (K562): > 100 µM (inactive) | GI50 (KM12): > 100 µM (inactive) | GI50 (LOX IMVI): > 100 µM (inactive) | GI50 (M14): > 100 µM (inactive) | GI50 (MCF7): > 100 µM (inactive) | GI50 (MDA-MB-231): > 81.1 µM (inactive) | GI50 (MDA-MB-435): > 100 µM (inactive) | GI50 (MDA-N): > 100 µM (inactive) | GI50 (MOLT-4): > 100 µM (inactive) | GI50 (Malme-3M): > 100 µM (inactive) | GI50 (NCI-H226): > 100 µM (inactive) | GI50 (NCI-H23): > 100 µM (inactive) | GI50 (NCI-H460): > 100 µM (inactive) | GI50 (NCI-H522): > 100 µM (inactive) | GI50 (NCI/ADR-RES): > 100 µM (inactive) | GI50 (OVCAR-3): > 100 µM (inactive) | GI50 (OVCAR-4): > 100 µM (inactive) | GI50 (OVCAR-5): > 100 µM (inactive) | GI50 (OVCAR-8): > 64.4 µM (inactive) | GI50 (PC-3): > 100 µM (inactive) | GI50 (RPMI-8226): > 100 µM (inactive) | GI50 (RXF 393): > 88.5 µM (inactive) | GI50 (SF-268): 98.4 µM (inactive) | GI50 (SF-295): > 100 µM (inactive) | GI50 (SF-539): > 100 µM (inactive) | GI50 (SK-MEL-28): > 100 µM (inactive) | GI50 (SK-MEL-2): > 100 µM (inactive) | GI50 (SK-MEL-5): > 100 µM (inactive) | GI50 (SK-OV-3): 5.82 µM (inactive) | GI50 (SN12C): > 100 µM (inactive) | GI50 (SNB-19): > 74 µM (inactive) | GI50 (SNB-75): 76.7 µM (inactive) | GI50 (SR): > 100 µM (inactive) | GI50 (SW-620): > 100 µM (inactive) | GI50 (T47D): > 100 µM (inactive) | GI50 (TK-10): > 100 µM (inactive) | GI50 (U-251): > 100 µM (inactive) | GI50 (UACC-257): > 100 µM (inactive) | GI50 (UACC-62): > 100 µM (inactive) | GI50 (UO-31): > 100 µM (inactive)
